Data set [1] concerns HepG2 cell line. Briefly: In vitro cytotoxicity assay (MTS tetrazolium reduction). The data set is classed as cell-based. The note with it: HepG2, 48 h. As for the experimental part: In an embodiment, in vitro cytotoxicity assay was carried out. In vitro cytotoxicity assay was performed in HepG2 cell line using a tetrazolium reduction assay for cell viability evaluation (MTS reduction as described by Cory A. et al (Cancer Commun. 1991, 3 (7), 207-212)). The assay was performed in 96-well plates for 48 h at 37° C. and 5% CO2 in incubation medium (low glucose DMEM with Glutamax, 10% FBS, 1% Pen/Strep and DMSO). Cells were exposed to 8 different compound concentrations in successive dilutions (usually, base 2), plus a positive control (a compound in a concentration known to decrease cell viability above 50%) and a negative control (incubation medium). Six replicate wells were assayed for each condition. Compound stock solutions were prepared in DMSO at 20 mM, whenever possible, filter sterilized, aliquoted and stored at −20° C. The maximum compound concentrations tested depend on its solubility in incubation medium, and on the maximum DMSO percentage allowable without loss of cell viability. At the end of the incubation period, tetrazolium reagent was added (CellTiter 96′ AQueous Solution from Promega); cells were incubated for another 3 hours in order to promote tetrazolium reduction to formazan by viable cells. The amount of soluble formazan produced was evaluated by 490 nm absorbance reading in a spectrophotometer plate reader. […] Whenever possible, IC50 was calculated as the concentration of compound that reduces cell viability by 50%.
Background: Tetrazolium assays rely on reduction of a dye to a coloured formazan, in cell work by metabolically active cells.

Data set [2] can be described thus: PAMPA assay, GIT model. The data set is classed as in vitro ADME. The note with it: log Papp; pH 7.4, 50 μM, 4 hours, room temperature. As for the experimental part:
In an embodiment, PAMPA assay was carried. All steps of PAMPA assay were carried out according to pION Inc. PAMPA Explorer™ Manual. The main principle of the assay is the compound incubation in the donor chamber with aqueous buffer, which is separated from the acceptor chamber, with another buffer, by a phospholipid or hydrocarbon membrane fixed on a filter support. After the test, concentrations in the corresponding donor and acceptor chambers are measured and permeability is calculated. GIT model was simulated using GIT-0 phospholipid mix. Verapamil and quinidine (high permeability) and ranitidine (low permeability) were used as reference compounds. All compounds were tested in quadruplicates. […] After incubation, aliquots from both chambers were transferred to optic UV-Vis plates and absorbance was recorded in the range of 202-500 nm in 4 nm steps. Compounds with low UV-Vis signal were evaluated by LC-MS/MS (using a Shimadzu VP HPLC system with a reverse phase HPLC column, coupled with tandem mass spectrometer API 3000 (PE Sciex) and TurbolonSpray ion source used in positive ion mode; acquisition and analysis of the data were performed using Analyst 1.5.2 software (PE Sciex)).
The apparent permeability coefficient was calculated using the formula below. […]
The apparent permeability coefficient was calculated for each compound (log Papp).
For orientation: PAMPA measures passive passage across an artificial lipid membrane.

In data set [3] the test system is H37Rv M. tuberculosis (strain ATCC 25618). The experiment in a line: Mycobacterium tuberculosis susceptibility assay REMA (resazurin microtiter assay). The data set is classed as cell-based. On the technique in general: Resazurin is reduced to fluorescent resorufin, in cell work by metabolically active cells.

As usually defined, the pIC50 is the negative decadic logarithm of the IC50, by convention in mol/L. One may read the MIC as the smallest concentration in the dilution series that meets the test's criterion for growth inhibition.

pIC50: −log10 of the molar value. ≈ marks a conversion by molar mass, not a printed value. A value given as a limit tells only on which side of the number the result lay.

Regarding `COc1cccc2ccc(N3CCC(c4nc(-c5ccc(OC(F)(F)F)cc5)no4)CC3)nc12` [Compound 3, 5-(1-(8-methoxyquinolin-2-yl)piperidin-4-yl)-3-(4-(trifluoromethoxy)phenyl)-1,2,4-oxadiazole], the pIC50 is under 4.00 in data set [1] (Homo sapiens) and under 4.00 in data set [1] (Table 2, cytotoxicity, MTS). Further, the “GIT PAMPA” value in data set [2] was −4.8 log[10^−6 cm/s]. Moreover, the MIC in data set [3] (Mycobacterium tuberculosis, 144 h, read-out: REMA MIC) lay in the range of 7.8 to 15.6 µM (≈ 3.67 to 7.34 µg/mL). For the same molecule, the “REMA MIC” value in data set [3] (Table 2, MTB growth REMA, H37Rv, Middlebrook 7H9, 6 days at 37° C.) is “+++ (7.8-15.6)”.

The values above are taken from patent publication US20240279217A1, “Heterocyclic compounds for the treatment of tuberculosis” (TECNIMEDE - SOCIEDADE TÉCNICO-MEDICINAL, SA, priority 2021, published 2024).
